Values quoted from earlier work, collected in US20250346572A1, “NON-ACID INHIBITORS OF INOSITOL HEXAKISPHOSPHATE KINASE (IP6K) AND METHODS OF USE THEREOF” (Lieber Institute, Inc., priority 2022, published 2025).

System: Mice treated with HFD
Conditions: HFD for 8 weeks, then daily intraperitoneal 20 mg/kg TNP and HFD for 18 days

## O=[N+]([O-])c1ccc(CNc2nc(NCc3cccc(C(F)(F)F)c3)nc3nc[nH]c23)cc1 [TNP, N2-(m-trifluorobenzyl)-N6-(p-nitrobenzyl)purine]
  glucose tolerance and insulin sensitivity: improved glucose tolerance and insulin sensitivity
  serum insulin levels: lower serum insulin levels
